Literature values, collected in patent US7442671B2, “O-phenylphenol/alkoxylated amine wood protection compositions” (Contechem Inc., priority 2004, dated 2008).

Oc1ccccc1-c1ccccc1 [O-phenylphenol, o-phenylphenol]
solubility in water: only slightly soluble in water
